Reference: PMC4841536, “Characterization of the Anti-HCV Activities of the New Cyclophilin Inhibitor STG-175” (PLoS ONE, 2016)

Columns and labels:
[1] = test system: wild-type Con1 (GT1b) replicon colonies; experiment: Degree of resistance of replicon colonies, wild-type; type: cell-based; conditions: Hepatitis C virus, read-out: EC50 of STG-175, WT colonies
Procedure: Huh-7 cells expressing subgenomic Con1 (GT1b) replicon were incubated with STG-175 and 100 μg/ml of G418 in 10 cm CellBIND™ plates (Corning). Cells were split every 3 days at 1:6 and G418 concentration was increased sequentially to 200 and 300 μg/mL. […] At this point, medium was changed every 3–4 days until emergence of resistant clones. Clones were individually transferred to 24-well CellBIND using cloning disks. […] Each clone was split in 2 identical plates and was separately maintained under 0.5 or 1.0 μM STG-175 and 100 μg/mL of G418. Once the colonies were established, G418 concentration was increased to 300 μg/mL. […] Briefly, total RNA was prepared using the RNeasy Plus Mini Kit as per manufacturer’s recommendation. […] The amplicons were gel purified, quantitated and sequenced using primers located internally in NS5A or NS5B reading to the 5’ and 3’ ends. Sequences were assembled and analyzed using the ClustalW algorithm within the MacVector program. […]
Fig 3 Replicon clearance, replication rebound and resistance analyses. […] At each passage, samples of cells were collected, RNA extracted and analyzed by RT-PCR for HCV RNA levels. […] At each passage, sample of cells were collected, RNA extracted and analyzed by RT-PCR for HCV RNA levels. […] Data are expressed as number of HCV RNA copies per cell. […] Data are expressed as mean of relative light units and calculated EC50s are presented. […]

[2] = alamarBlue cytotoxicity (CC50), GT4a replicon cell line; conditions: human
Procedure: The anti-HCV activity of STG-175 was conducted using a panel of luciferase reporter replicon cell lines including GT1a, GT1b, GT2a, GT3a and GT4a as we described previously. The GT1a subgenomic renilla luciferase reporter replicon H77 RLucP (7) was supplied by Dr. Delaney. The GT1b subgenomic firefly luciferase reporter replicon pFK-I389/NS3-3’ [29] was supplied by Dr. Bartenschlager. The GT1B subgenomic NS3, NS5A and NS5B mutants were created via homologous recombination using the In-Fusion HD Cloning kit (Clontech) as we described previously. The GT2a genomic luciferase reporter replicon Luc-Neo-JFH-1 was generated as previously. The plasmid pFK-Luc-JFH1 was supplied from Drs. […] The CellTiter-Fluor™ Cell Viability Assay is a non-lytic fluorescence assay, which measures the number of live cells. […] Luciferase activity was determined using the Luciferase Assay System (Promega) in a Berthold luminometer. […] Viable cells continuously convert resazurin to resorufin, increasing the overall fluorescence and color of the media surrounding cells.
Fig 2 Anti-HCV activities of STG-175 among GTs. […] Luciferase activity was determined using the Luciferase Assay System in a Berthold luminometer. […] Data are expressed as mean of relative light units and calculated EC50s are presented. […]

CC=CCC(C)C(O)C1C(=O)NC(CC)C(=O)N(C)C(CSCCCCO)C(=O)N(C)C(CC(C)(C)O)C(=O)NC(C(C)C)C(=O)N(C)C(CC(C)C)C(=O)NC(C)C(=O)NC(C)C(=O)N(C)C(CC(C)C)C(=O)N(C)C(CC(C)C)C(=O)N(C)C(C(C)C)C(=O)N1C (centres unmarked) [STG-175]
EC50 [1]: 15.7 nM
CC50 at 72 h [2]: > 10000 nM
